Legend:
[1] = system: cleaved caspase-3 in LNCaP cells; assay: Akt/ERK silencing or inhibition, cleaved caspase-3 immunoblot; assay type: cell-based, human
Procedure: The siRNAs against human Akt and ERK and control siRNA were purchased commercially from Santa Cruz Biotechnology (USA). The LNCaP and PC-3 PCa cells were transfected with siRNAs (at a final concentration of 100 nM) using polyfect transfection reagent (Qiagen, CA, USA) according to manufacturer’s instructions. After 24 h of transfection, the cells were washed properly and replaced with fresh medium. The cells were then treated with 20 μM conjugate for 24 h, and finally protein lysates were prepared on completion of treatment. The levels of p-Akt, p-ERK and cleaved caspase-3 expressions were detected by Western blot analysis.
Figure 5 Differential role of PI3K/Akt and MAPK/ERK pathways in conjugate induced apoptosis of prostate cancer cells. Effects of siRNA mediated silencing of Akt and ERK on conjugate-induced apoptosis of (A) PC-3 and (B) LNCaP cells. LNCaP and PC-3 PCa cells were transfected with siRNAs (at a final concentration of 100 nM) using polyfect transfection reagent. After 24 h of transfection the cells were treated with 20 μM conjugate and allowed to grow for another 24 h. The cell lysates were prepared and the level of p-Akt, p-ERK and cleaved caspase-3 proteins were detected by immunoblot analysis. The histogram on the right panel of each figure represents densitometric analyses of the image data and expressed as percent of control where the results are mean ± SEM of three independent experiments. *and # represents statistically significant difference with respect to control and 20 μM conjugate treated groups respectively at p<0.05.
Supplementary file pone.0093335.s001.tif: Figure S1 (A) Effects of the Akt Kinase inhibitor (A6730) and/or the ERK inhibitor (PD98059) on the conjugate-induced apoptosis of PC-3 and (B) LNCaP cells. The cells were pre-treated with A6730 (5 μM) and/or PD98059 (20 μM) for 1 h before the addition of 20 μM conjugate for additional 24 h (total inhibitor exposure time was 25 h). The collected cell lysates were then immunoblotted using respective antibodies. The histogram on the right panel of each figure represents densitometric analyses of the image data and expressed as percent of control where the results are mean ± SEM of three independent experiments. *and # represents statistically significant difference with respect to control and 20 μΜ conjugate treated groups respectively at p<0.05. (TIF) Click here for additional data file.

PC-3 cells = assay: Cell cycle distribution by flow cytometry; assay type: cell-based, human; settings: PC-3, 40 μM, 24 h (control 22%)
Procedure: (§1) Cell cycle distribution and Annexin V/Propidium iodide (PI) positive cells were analyzed using flow cytometry. In brief, first the cells were seeded and treated with 0, 10, 20 and 40 μM conjugate in complete medium for 24 h. This was followed by trypsinizing and fixing in 70% ethanol, and finally washing with PBS. Subsequently, the cells were treated with RNase A (50 μg/ml), stained with PI (50 μg/ml) and incubated in the dark for 30 min at room temperature and analyzed by flow cytometry for cell cycle distribution. For apoptosis, the conjugate treated cells were stained with Alexa-Fluor 488-conjugated Annexin-V using the Vybrant-Apoptosis Assay Kit from Invitrogen (USA) as per the manufacturer’s protocol. The stained cells were then analyzed by fluorescence activated cell sorting (FACS Calibur, BD Biosciences, San Jose, CA, USA) and the data were standardized using Cell Quest 3.3 software.

LNCaP cells = assay: Cell cycle distribution by flow cytometry; assay type: cell-based, human
Procedure: as §1

[2] = molecular target: T1, androgen receptor in LNCaP cells (Homo sapiens, UniProt P10275, T878A); assay: AR transactivation luciferase assay (pMMTV-luc); assay type: cell-based
T1 construct: LNCaP cells, that express endogenous AR; endogenous in cells; host or cells: LNCaP
T1 sequence (P10275 1-920 T878A): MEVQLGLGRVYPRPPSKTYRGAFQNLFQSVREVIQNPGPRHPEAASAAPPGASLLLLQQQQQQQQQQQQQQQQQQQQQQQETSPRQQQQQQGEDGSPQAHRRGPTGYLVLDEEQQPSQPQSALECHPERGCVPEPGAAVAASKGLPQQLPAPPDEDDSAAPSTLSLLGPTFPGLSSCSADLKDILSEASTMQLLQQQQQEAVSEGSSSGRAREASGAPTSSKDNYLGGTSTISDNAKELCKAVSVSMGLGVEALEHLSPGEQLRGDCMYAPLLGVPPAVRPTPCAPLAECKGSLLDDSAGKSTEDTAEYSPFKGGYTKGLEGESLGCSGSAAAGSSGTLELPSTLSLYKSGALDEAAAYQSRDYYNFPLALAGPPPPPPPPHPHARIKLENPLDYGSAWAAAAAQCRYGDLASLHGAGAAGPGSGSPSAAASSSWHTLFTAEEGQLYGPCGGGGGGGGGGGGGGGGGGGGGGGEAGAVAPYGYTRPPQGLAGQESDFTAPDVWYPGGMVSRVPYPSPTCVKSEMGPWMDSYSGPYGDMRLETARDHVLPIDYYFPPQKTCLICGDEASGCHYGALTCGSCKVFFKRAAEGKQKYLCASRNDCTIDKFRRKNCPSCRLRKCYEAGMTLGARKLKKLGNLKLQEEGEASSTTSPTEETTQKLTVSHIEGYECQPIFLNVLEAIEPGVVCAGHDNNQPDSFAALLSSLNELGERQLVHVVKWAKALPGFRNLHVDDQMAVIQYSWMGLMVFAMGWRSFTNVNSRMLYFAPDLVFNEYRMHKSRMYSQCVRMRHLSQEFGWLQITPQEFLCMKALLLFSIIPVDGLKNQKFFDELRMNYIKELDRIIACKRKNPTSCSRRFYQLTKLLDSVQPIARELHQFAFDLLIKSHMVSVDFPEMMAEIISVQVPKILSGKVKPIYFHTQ
Procedure: The LNCaP cells were grown and transiently transfected with pMMTV-neomycin-luciferase plasmid (300 ng/10^5 cells) in RPMI media supplemented with 10% FBS using polyfect transfection reagent (Qiagen, CA, USA) according to manufacturer’s instructions. Then, 24 h after transfection, the cell culture media were changed with media containing 5% charcoal-stripped FBS to reduce the contaminating steroids from the serum and incubated for an additional day before initiating the treatments. In case of PC-3 cells, they were similarly transfected, but in addition to pMMTV-neomycin-luciferase construct, they were also transfected with pSG5-hAR-puro plasmid (full length hAR in pSG5 expression vector) in the ratio of 5∶1 as indicated above. For experiments involving co-regulators, 50 ng of co-activator plasmids (25 ng each of GRIP-1 and SRC-1) along with pMMTV-neo-luc (250 ng) were transfected to LNCaP cells. To evaluate the transfection efficiency, 500 ng/105 cells of the SV40 promoter-Renilla luciferase (pRL-SV40) vector (Promega Madison, USA) were co-transfected as internal control. […] Each experimental point was performed in triplicate and varied by less than 10%. The values of luciferase for each lysates were normalized to the Renilla luciferase activity.

COc1cc(/C=C/c2ccc(O)c(/C=N/NC(N)=S)c2)cc(OC)c1 [conjugate, Pterostilbene-isothiocyanate conjugate]
increase in cleaved caspase-3 protein level ([1]; Akt-silenced LNCaP cells, 20 μM conjugate): ~4.5 folds | increase in cleaved caspase-3 level ([1]; ERK-silenced LNCaP cells, 20 μM conjugate): 6.5 folds | cleaved caspase-3 in ERK-silenced cells plus conjugate relative to conjugate alone ([1]; LNCaP, 20 μM conjugate): about 1.4 times | level of cleaved caspase-3 vs conjugate alone ([1]; LNCaP, A6730 (5 μM) combined with 20 μM conjugate): did not show any significant increase | level of cleaved caspase-3 vs conjugate alone ([1]; LNCaP, co-treatment with PD98059 (20 μM) and 20 μM conjugate): significantly increased | cells arrested in G2/M phase (PC-3 cells): approximately 50% | accumulation of cells in G2/M phase (LNCaP cells; increasing doses of conjugate, 24 h): 16–35% | cells in G2/M phase (LNCaP cells; treated cells, 24 h (control 11%)): 35% | transcriptional activation by compound alone ([2]; 1–40 μM, without DHT): did not induce transcriptional activation | inhibition at 40 µM ([2]; read-out: inhibition of androgen-induced transactivation): ~73%

Source: PMC3974779, “Pterostilbene-Isothiocyanate Conjugate Suppresses Growth of Prostate Cancer Cells Irrespective of Androgen Receptor Status” (PLoS ONE, 2014)
